This assay has as its system E. coli ATCC 11229. The experiment in a line: Determination of Minimum Biocidal Concentration (MBC), XTT reduction inhibition (Example 21). The note with it: for Minimum Biocidal Concentration (MBC): E. coli ATCC 11229, 1.35×10^6 CFU/mL, 10 minutes at room temperature, XTT, six-log kill; for replicate OD (450 nm): replicates 1-8. The format is cell-based. From the text:
The method described by J. Gabrielson, et al. (J. Microbiol. Methods 50: 63-73 (2002)) was employed for determination of the Minimum Biocidal Concentration (MBC) of peracids, or for determination of the MBC of hydrogen peroxide and enzyme substrates. The assay method is based on XTT reduction inhibition, where XTT ((2,3-bis[2-methoxy-4-nitro-5-sulfophenyl]-5-[(phenylamino)carbonyl]-2H-tetrazolium, inner salt, monosodium salt) is a redox dye that indicates microbial respiratory activity by a change in optical density (OD) measured at 490 nm or 450 nm. However, there are a variety of other methods available for testing the activity of disinfectants and antiseptics including, but not limited to viable plate counts, direct microscopic counts, dry weight, turbidity measurements, absorbance, and bioluminescence (see, for example Brock, Semour S., Disinfection, Sterilization, and Preservation, 5th edition, Lippincott Williams & Wilkins, Philadelphia, Pa., USA; 2001).
The filtered enzyme-generated product mixture was diluted 1:5 with sterile water, and the resulting solution was further diluted with sterile water in four 1:1 serial dilutions to obtain the concentrations of PAA and hydrogen peroxide listed in Table 22.
The 1:5 dilution and four serial dilutions were evaluated for biocidal activity by mixing 0.100 mL of the PAA-containing solution with 0.100 mL of an inoculum containing 2.7×10^6 CFU/mL of E. coli ATCC 11229 (American Type Culture Collection, Manassas, Va.) in Millers LB broth diluted with Butterfield Buffer; eight replicates of each mixture were contained in individual wells of a sterile 96-well microtiter plate. After the resulting cell suspensions were allowed to stand for 10 minutes at room temperature, they were tested for viability using the growth indicator XTT (2,3-bis[2-methoxy-4-nitro-5-sulfophenyl]-5-[(phenylamino)carbonyl]-2H-tetrazolium, inner salt, monosodium salt; CAS RN 111072-31-2) according to the method of Gabrielson et al. (J. Microbiol. Methods, 50:63-73 (2002)).
Separately, the cell inoculum was treated with sterile solutions of triacetin (Table 24) or hydrogen peroxide in 50 mM phosphate buffer (pH 6.5) (Table 25) at the concentrations present in each of the biocide dilutions in Table 23 to determine the MBC for these components of the biocide solution.
Background: Tetrazolium dyes change colour on reduction, which living cells bring about.

In brackets after ≈: the same amount, converted by molar mass. Several values for one entry are separate records, joined by “and”; a condition that tells them apart may be missing. Equal values may be shown once.

For `CC(=O)OO` [Commercially-Available Peracetic Acid, peracetic acid, reference compound], the “Minimum Biocidal Concentration (MBC)” value (listed as commercial source of peracetic acid) is over 2.3 ppm. Besides, the “blank-corrected mean OD” value reads like this: (commercial PAA 1.15 ppm) 1.138; (commercial PAA 2.3 ppm) 0.026; (commercial PAA 4.7 ppm) 0.027; (commercial PAA 9.4 ppm) 0.024; (commercial PAA 18.75 ppm) 0.024. In addition, the “mean replicate OD (450 nm)” value reads like this: (commercial PAA 1.15 ppm) 1.410; (commercial PAA 2.3 ppm) 0.298; (commercial PAA 4.7 ppm) 0.298; (commercial PAA 9.4 ppm) 0.295; (commercial PAA 18.75 ppm) 0.295. Besides, the “replicate OD (450 nm)” value was 1.343 and 1.377 and 1.368 and 1.378 and 1.324 and 1.386 and 1.734 and 1.367 (commercial PAA 1.15 ppm); 0.292 (2×) and 0.291 and 0.294 and 0.303 (2×) and 0.318 and 0.288 (commercial PAA 2.3 ppm); 0.294 (2×) and 0.295 and 0.298 and 0.293 and 0.304 and 0.310 and 0.297 (commercial PAA 4.7 ppm); 0.290 and 0.294 (2×) and 0.291 and 0.299 and 0.295 and 0.301 and 0.296 (commercial PAA 9.4 ppm); 0.289 and 0.288 and 0.296 (2×) and 0.294 and 0.300 and 0.306 and 0.292 (commercial PAA 18.75 ppm).

For `CC(=O)OO` [peracetic acid], for the setting “listed as PAA”, the “Minimum Biocidal Concentration (MBC)” value is given as over 2.4 ppm. In addition, the MBC (Escherichia coli, ATCC11229, 10 min, read-out: Minimum Biocidal Concentration (MBC), E. coli ATCC 11229, 1.35×10^6 CFU/mL, 10 minutes at room temperature, XTT, six-log kill) was 2.4 µg/mL (≈ 31.6 µM). Also, the “blank-corrected mean OD” value is recorded as 0.203 (PAA 1.2 ppm, H2O2 40.2 ppm); 0.007 (PAA 2.4 ppm, H2O2 80.4 ppm); −0.005 (PAA 4.8 ppm, H2O2 160.8 ppm); −0.009 (PAA 9.6 ppm, H2O2 321.6 ppm); −0.029 (PAA 19.15 ppm, H2O2 643.1 ppm). Further, the “mean replicate OD (450 nm)” value reads like this: (PAA 1.2 ppm, H2O2 40.2 ppm) 0.617; (PAA 2.4 ppm, H2O2 80.4 ppm) 0.421; (PAA 4.8 ppm, H2O2 160.8 ppm) 0.409; (PAA 9.6 ppm, H2O2 321.6 ppm) 0.405; (PAA 19.15 ppm, H2O2 643.1 ppm) 0.388. For the same molecule, the “replicate OD (450 nm)” value reads like this: (PAA 1.2 ppm, H2O2 40.2 ppm) 0.674 and 0.635 and 0.658 and 0.625 and 0.639 and 0.520 and 0.496 and 0.692; (PAA 2.4 ppm, H2O2 80.4 ppm) 0.400 and 0.397 and 0.403 and 0.401 and 0.409 and 0.407 and 0.543 and 0.406; (PAA 4.8 ppm, H2O2 160.8 ppm) 0.393 and 0.388 and 0.399 and 0.398 and 0.404 and 0.401 and 0.471 and 0.418; (PAA 9.6 ppm, H2O2 321.6 ppm) 0.398 and 0.392 and 0.395 and 0.404 and 0.409 and 0.394 and 0.422 and 0.427; (PAA 19.15 ppm, H2O2 643.1 ppm) 0.383 and 0.379 and 0.387 and 0.381 and 0.382 (2×) and 0.403 (2×).

In the case of `CC(=O)OCC(COC(C)=O)OC(C)=O` [triacetin], the biocidal effect result (highest concentration examined (5455 ppm)) is given as “no biocidal effect”. Also, the “blank-corrected mean OD” value (triacetin 341 ppm) is reported as 2.156; the “blank-corrected mean OD” value (triacetin 682 ppm) amounted to 1.956; the “blank-corrected mean OD” value (triacetin 1364 ppm) is reported as 1.978; the “blank-corrected mean OD” value (triacetin 2728 ppm) is 1.913; the “blank-corrected mean OD” value (triacetin 5455 ppm) is recorded as 1.835. The “mean replicate OD (450 nm)” value reads like this: (triacetin 341 ppm) 2.571; (triacetin 682 ppm) 2.371; (triacetin 1364 ppm) 2.393; (triacetin 2728 ppm) 2.328; (triacetin 5455 ppm) 2.250. The “replicate OD (450 nm)” value reads like this: (triacetin 341 ppm) 2.568 and 2.563 and 2.601 and 2.58 and 3.148 and 2.408 and 2.507 and 2.189; (triacetin 682 ppm) 2.304 and 2.310 and 2.560 and 2.601 and 2.605 and 2.213 and 2.156 and 2.218; (triacetin 1364 ppm) 2.140 and 2.266 and 2.485 and 2.632 and 2.823 and 2.337 and 2.265 and 2.198; (triacetin 2728 ppm) 2.273 and 2.167 and 2.358 and 2.454 and 2.663 and 2.280 and 2.208 and 2.222; (triacetin 5455 ppm) 2.229 and 2.124 and 2.263 and 2.407 and 2.539 and 2.210 and 2.136 and 2.091.

For the origin of these results see patent US8063008B2, “Enzymatic production of peracids using perhydrolytic enzymes” (E. I. du Pont de Nemours and Company, priority 2005, dated 2011).
